Data published in patent US10729768B2, “Combination of anti-CD20 antibody and PI3 kinase selective inhibitor” (TG Therapeutics, Inc., priority 2012, dated 2020).

Assays:
Type in all cases: cell-based
[1] = system: U266B1 cells; assay: cell cycle assay, flow cytometry
Protocol: (§1) A cell cycle assay reagent (Millipore) was used to determine the effect of S-isomer of a compound of formula A, UBX, and combinations thereof on the cell cycle in cancerous cells. […] The cells were transferred to microfuge tubes to receive 50 μl of cell cycle reagent and incubated for 30 minutes at RT away from light. Cells were then diluted with 300-400 μl PBS, and a minimum of 10,000 events were acquired on a Guava® easyCyte™ flow cytometer. The data was analyzed with Express Pro software and the percentage of the cell population in different cell cycle stages with respect to control was presented in histograms.

[2] = system: Raji Cells; assay: cell cycle assay, flow cytometry
Protocol: as §1

[3] = system: DB Cells; assay: cell cycle assay, flow cytometry; conditions: DB cells
Protocol: as §1

[4] = system: Daudi cells; assay: cell cycle assay, flow cytometry
Protocol: as §1

[5] = system: CD20-positive cells; assay: B cell depletion from human whole blood (HWB), flow cytometry, CD20; conditions: 1 μM, 24 hrs
Protocol: A flow cytometry assay was used to compare the ability of S-isomer of compound of formula A, Ublituximab (Ubx), and combinations thereof to deplete B cells from human whole blood (HWB). In this assay, 50 μl of HWB sample was treated with either S-isomer of a compound of formula A (1000 nM), UBX (100 μg/ml to 0.1 μg/ml), or UBX in combination with S-isomer of a compound of formula A at 1000 nM and incubated for 24 hrs at 37° C. and 5% CO2. 20 μl of treated sample was taken in a 1.5 ml centrifuge tube and labeled with CD45 FITC and CD19 PE or CD20 FITC antibody and incubated in the dark for 1 hour at RT. 1 ml of red blood cell (RBC) lysing solution was added, and tubes were centrifuged at 3000 rpm for 10 minutes. […] The tubes were vortexed, and 5000 events were acquired on a Guava® easyCyte™ flow cytometer and analyzed with Incyte Software.
Gated population of CD45-positive cells were further analyzed for CD19. The number of cells that were positive for CD45 and CD19 was calculated, and the data was expressed as the percentage of CD19 positive cells in the population. CD20-positive populations were gated with fluorescence positive minus unlabeled cells, and the data was expressed as the percentage of CD20-positive cells in the population. The loss of CD19/CD20 population from control was calculated and expressed as % depletion with respect to control.

CC(C)Oc1ccc(-c2nn([C@@H](C)c3oc4ccc(F)cc4c(=O)c3-c3cccc(F)c3)c3ncnc(N)c23)cc1F [S-isomer, (S)-2-(1-(4-amino-3-(3-fluoro-4-isopropoxyphenyl)-1H-pyrazolo[3,4-d]pyrimidin-1-yl)ethyl)-6-fluoro-3-(3-fluorophenyl)-4H-chromen-4-one]
G0/G1, percentage of the cell population ([1]; 72 h, 0.1 nM): 59.26 | G2/M, percentage of the cell population ([1]; 72 h, 0.1 nM): 30.71 | S, percentage of the cell population ([1]; 72 h, 0.1 nM): 6.55 | Sub G0, percentage of the cell population ([1]; 72 h, 0.1 nM): 2.75 | G0/G1, percentage of the cell population ([1]; 72 h, 1 nM): 57.73 | G2/M, percentage of the cell population ([1]; 72 h, 1 nM): 36.19 | S, percentage of the cell population ([1]; 72 h, 1 nM): 4.87 | Sub G0, percentage of the cell population ([1]; 72 h, 1 nM): 0.94 | G0/G1, percentage of the cell population ([1]; 72 h, 10 nM): 55.33 | G2/M, percentage of the cell population ([1]; 72 h, 10 nM): 39.28 | S, percentage of the cell population ([1]; 72 h, 10 nM): 5.38 | Sub G0, percentage of the cell population ([1]; 72 h, 10 nM): 0.76 | G0/G1, percentage of the cell population ([1]; 72 h, 100 nM): 48.69 | G2/M, percentage of the cell population ([1]; 72 h, 100 nM): 45.76 | S, percentage of the cell population ([1]; 72 h, 100 nM): 5.49 | Sub G0, percentage of the cell population ([1]; 72 h, 100 nM): 0.75 | G0/G1, percentage of the cell population ([1]; 72 h, 1000 nM): 47.80 | G2/M, percentage of the cell population ([1]; 72 h, 1000 nM): 47.13 | S, percentage of the cell population ([1]; 72 h, 1000 nM): 4.69 | Sub G0, percentage of the cell population ([1]; 72 h, 1000 nM): 0.88 | G0/G1, percentage of the cell population ([1]; 72 h, 10,000 nM): 2.00 | G2/M, percentage of the cell population ([1]; 72 h, 10,000 nM): 64.31 | S, percentage of the cell population ([1]; 72 h, 10,000 nM): 0.94 | Sub G0, percentage of the cell population ([1]; 72 h, 10,000 nM): 28.88 | G0/G1, percentage of the cell population ([2]; 72 h, 0.1 nM): 56.54 | G2/M, percentage of the cell population ([2]; 72 h, 0.1 nM): 33.63 | S, percentage of the cell population ([2]; 72 h, 0.1 nM): 8.38 | Sub G0, percentage of the cell population ([2]; 72 h, 0.1 nM): 1.32 | G0/G1, percentage of the cell population ([2]; 72 h, 1 nM): 56.93 | G2/M, percentage of the cell population ([2]; 72 h, 1 nM): 34.13 | S, percentage of the cell population ([2]; 72 h, 1 nM): 5.51 | Sub G0, percentage of the cell population ([2]; 72 h, 1 nM): 1.89 | G0/G1, percentage of the cell population ([2]; 72 h, 10 nM): 55.96 | G2/M, percentage of the cell population ([2]; 72 h, 10 nM): 34.81 | S, percentage of the cell population ([2]; 72 h, 10 nM): 5.80 | Sub G0, percentage of the cell population ([2]; 72 h, 10 nM): 1.06 | G0/G1, percentage of the cell population ([2]; 72 h, 100 nM): 52.81 | G2/M, percentage of the cell population ([2]; 72 h, 100 nM): 37.80 | S, percentage of the cell population ([2]; 72 h, 100 nM): 6.72 | Sub G0, percentage of the cell population ([2]; 72 h, 100 nM): 1.04 | G0/G1, percentage of the cell population ([2]; 72 h, 1000 nM): 52.04 | G2/M, percentage of the cell population ([2]; 72 h, 1000 nM): 41.21 | S, percentage of the cell population ([2]; 72 h, 1000 nM): 3.92 | Sub G0, percentage of the cell population ([2]; 72 h, 1000 nM): 1.29 | G0/G1, percentage of the cell population ([2]; 72 h, 10,000 nM): 10.12 | G2/M, percentage of the cell population ([2]; 72 h, 10,000 nM): 58.09 | S, percentage of the cell population ([2]; 72 h, 10,000 nM): 23.17 | Sub G0, percentage of the cell population ([2]; 72 h, 10,000 nM): 4.90 | G0/G1, percentage of the cell population ([3]; 72 h, 0.1 nM): 54.37 | G2/M, percentage of the cell population ([3]; 72 h, 0.1 nM): 39.41 | S, percentage of the cell population ([3]; 72 h, 0.1 nM): 4.84 | Sub G0, percentage of the cell population ([3]; 72 h, 0.1 nM): 0.84 | G0/G1, percentage of the cell population ([3]; 72 h, 1 nM): 50.61 | G2/M, percentage of the cell population ([3]; 72 h, 1 nM): 41.44 | S, percentage of the cell population ([3]; 72 h, 1 nM): 6.53 | Sub G0, percentage of the cell population ([3]; 72 h, 1 nM): 0.54 | G0/G1, percentage of the cell population ([3]; 72 h, 10 nM): 47.22 | G2/M, percentage of the cell population ([3]; 72 h, 10 nM): 46.85 | S, percentage of the cell population ([3]; 72 h, 10 nM): 4.98 | Sub G0, percentage of the cell population ([3]; 72 h, 10 nM): 0.55 | G0/G1, percentage of the cell population ([3]; 72 h, 100 nM): 41.21 | G2/M, percentage of the cell population ([3]; 72 h, 100 nM): 50.22 | S, percentage of the cell population ([3]; 72 h, 100 nM): 6.96 | Sub G0, percentage of the cell population ([3]; 72 h, 100 nM): 0.43 | G0/G1, percentage of the cell population ([3]; 72 h, 1000 nM): 0.75 | G2/M, percentage of the cell population ([3]; 72 h, 1000 nM): 92.79 | S, percentage of the cell population ([3]; 72 h, 1000 nM): 0.42 | Sub G0, percentage of the cell population ([3]; 72 h, 1000 nM): 5.36 | G0/G1, percentage of the cell population ([3]; 72 h, 10,000 nM): 1.40 | G2/M, percentage of the cell population ([3]; 72 h, 10,000 nM): 94.87 | S, percentage of the cell population ([3]; 72 h, 10,000 nM): 0.89 | Sub G0, percentage of the cell population ([3]; 72 h, 10,000 nM): 2.06 | G0/G1, percentage of the cell population ([4]; 72 h, 0.1 nM): 49.56 | G2/M, percentage of the cell population ([4]; 72 h, 0.1 nM): 33.23 | S, percentage of the cell population ([4]; 72 h, 0.1 nM): 14.13 | Sub G0, percentage of the cell population ([4]; 72 h, 0.1 nM): 0.34 | G0/G1, percentage of the cell population ([4]; 72 h, 1 nM): 48.11 | G2/M, percentage of the cell population ([4]; 72 h, 1 nM): 36.75 | S, percentage of the cell population ([4]; 72 h, 1 nM): 13.27 | Sub G0, percentage of the cell population ([4]; 72 h, 1 nM): 0.74 | G0/G1, percentage of the cell population ([4]; 72 h, 10 nM): 46.84 | G2/M, percentage of the cell population ([4]; 72 h, 10 nM): 37.79 | S, percentage of the cell population ([4]; 72 h, 10 nM): 12.55 | Sub G0, percentage of the cell population ([4]; 72 h, 10 nM): 1.68 | G0/G1, percentage of the cell population ([4]; 72 h, 100 nM): 47.39 | G2/M, percentage of the cell population ([4]; 72 h, 100 nM): 38.05 | S, percentage of the cell population ([4]; 72 h, 100 nM): 11.33 | Sub G0, percentage of the cell population ([4]; 72 h, 100 nM): 1.30 | G0/G1, percentage of the cell population ([4]; 72 h, 1000 nM): 48.27 | G2/M, percentage of the cell population ([4]; 72 h, 1000 nM): 40.10 | S, percentage of the cell population ([4]; 72 h, 1000 nM): 7.91 | Sub G0, percentage of the cell population ([4]; 72 h, 1000 nM): 2.22 | G0/G1, percentage of the cell population ([4]; 72 h, 10,000 nM): 2.53 | G2/M, percentage of the cell population ([4]; 72 h, 10,000 nM): 65.03 | S, percentage of the cell population ([4]; 72 h, 10,000 nM): 21.92 | Sub G0, percentage of the cell population ([4]; 72 h, 10,000 nM): 5.01 | reduction in CD20-positive HWB B-cells [5]: not observed
